In patent US6716597B2, “Methods and products for regulating cell motility” (priority 2000, dated 2004):

Test system: Rat2 fibroblasts
Experiment: Time-lapse videomicroscopy random migration assay (cell speed, polarity)
Format: cell-based, rat
Conditions: Rat2 cells
Method: Cells adapted to microscopy media (Life Technologies, Rockville, Md.) as described above were trypsinized, counted, and resuspended in microscopy media at 7.14×10^3 cells/mL. 1.4 mL (10,000 cells) of this cell suspension was added to a ΔT dish (Bioptechs Inc., Butler, Pa.) that had previously been coated overnight with 10 μg/mL fibronectin (Becton Dickinson) at 4° C. and then blocked with lmg/mL cell-culture-grade BSA (Sigma, St. Louis, Mo.). Cells were allowed to attach and spread for 1 hour at 37° C. before movies were initiated. 10x phase contrast movies were 4.5 hours long with a frame taken every five minutes. A custom time-lapse collection script written in IPLabs was used to automate microscope and camera function. Light was shutter controlled. […] Cell paths were generated from the calculated centroid positions and parameters (speed and membrane flow) were calculated from the resulting path file. Speed was calculated using the Central Difference Method in DIAS, which is equivalent to a root mean squared calculation. […]
Rat 2 cells were exposed to 0, 5 nM, 25 nM, 50 nM, or 500 nM cytochalasin D and motility was measured. One set of cells received no cytochalasin D. Other cells received a low dose of cytochalasin D (e.g. 5 nM or 25 nM) or a high dose of cytochalasin D. (e.g. 500 nM) The motility of the treated cells was assessed using the motility assay described above.

For `C=C1[C@@H](C)[C@H]2[C@H](Cc3ccccc3)NC(=O)[C@]23[C@H](OC(C)=O)/C=C/[C@@](C)(O)C(=O)[C@@H](C)C/C=C/[C@H]3[C@@H]1O` [cytochalasin D, reference compound], the cell speed (25 nM (low dose)) was “increased” and the cell speed (500 nM (high dose)) was “decreased”.
